Entries after “also recorded” stand apart in the source; their conditions may differ. Read-outs that look alike come from different tables or passages of the source. Positions of bridges follow the written chain, without caps; N, C: chain ends.
T1: Alk-6 (Homo sapiens, UniProt O00238)
T1 construct: Highly purified extra-cellular domain (ECD) of Alk-3 or Alk-6 (expressed as a fusion protein with Fc domain) served as a receptor
T1 sequence (O00238 14-126 limits assumed): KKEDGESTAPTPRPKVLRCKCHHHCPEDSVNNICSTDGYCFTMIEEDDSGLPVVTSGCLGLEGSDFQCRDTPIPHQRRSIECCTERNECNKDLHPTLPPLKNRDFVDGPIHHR

B1: BMP-7: bone morphogenetic protein-7; recombinant human BMP7, positive control (protein)
chain: STGSKQRSQNRSKTPKNQEALRMANVAENSSSDQRQACKKHELYVSFRDLGWQDWIIAPEGYAAYYCEGECAFPLNSYMNATNHAIVQTLVHFINPETVPKPCCAPTQLNAISVLYFDDSSNVILKKYRNMVVRACGCH

Legend:
NP-1 cells = experiment: TGF-β-induced EMT in NP-1 cells (inhibition and reversal); format: cell-based; conditions: added after EMT induction for additional 48 hrs; BMP 7 1 μg/ml, THR-123 10 μM
UUO animals = experiment: Unilateral ureteral obstruction (UUO), FIG. 33-34; format: in vivo; conditions: for hydroxyproline content (total collagen) of UUO kidneys: 3-fold increase in vehicle-treated UUO kidneys; for expansion of the interstitial space: UUO animals showed 3 fold expansion
Text: In the animals given BMP-7 or […] Hydroxyproline content, a measure of total collagen, increased 3-fold in the vehicle-treated UUO kidneys compared with sham-operated kidneys. […]

[1] = test system: mice with unilateral ureteral obstruction (UUO); experiment: Unilateral ureteral obstruction (UUO) in mice; format: in vivo; conditions: for kidney histology (H&E), day 7 UUO: BMP7 i.p., THR-123 i.p. or orally; for interstitial volume / fibrosis, day 7 UUO: BMP-7 300 μg/Kg every other day i.p., THR-123 5 mg/Kg/day i.p. or oral
Protocol: FIG. 56A-FIG. 56J The effect of THR-123 on mice with unilateral ureteral obstruction (UUO) mice. At the day of UUO, BMP-7 (300 μg/Kg/every other day, intraperitoneal administration) or THR-123 (5 mg/Kg/day, oral or intraperitoneal administration) are initiated. FIG. 56A-FIG. 56D: Masson's trichrome staining of normal kidney, day 5 UUO kidney. FIG. 56A. normal kidney section. […] FIG. 56C, FIG. 56D. […] FIG. 56E. Morphometric analysis for relative interstitial volume. Interstitial volume was calculated by the point counting method. FIG. 56F-FIG. 56I. Masson's trichrome staining of normal kidney, day 7 UUO kidney. […] FIG. 56I. Morphometric analysis for relative interstitial volume. Interstitial volume was calculated by the point counting method. […] Normal mice (n=4), day 5 UUO without treatment (n=4), day 5 UUO-treated with 5 mg/kg THR-123 (n=4), day 5 UUO-treated with 15 mg/kg THR-123 (n=4), day 7 UUO-treated with PBS (n=8), -treated with BMP (n=8) and -treated with THR-123 (n=7 in both i.p. and oral). Data are shown as mean±s.e.m. in the graph (FIG. 56J).
FIG. 57A-FIG. 57H The effect of THR-123 on mice with unilateral ureteral obstruction (UUO) mice (H&E staining). On the day UUO was performed, treatments of BMP7 (300 μg/Kg/every other day, intraperitoneal administration) or THR-123 (5 mg/Kg/day, oral or intraperitoneal administration) are initiated. FIG. 57A. Normal kidney section. FIG. 57B. Day 5 UUO mice FIG. 57C, FIG. 57D. Kidney of UUO mice treated with THR-123 orally at 5 mg/kg (FIG. 57C) or 15 mg/kg (FIG. 57D) E-H. Day 7 UUO kidney histology. […] Normal mice (n=4), day 5 UUO without treatment (n=4), day 5 UUO-treated with 5 mg/kg THR-123 (n=4), day 5 UUO-treated with 15 mg/kg THR-123 (n=4), day 7 UUO-treated with PBS (n=8), -treated with BMP (n=8) and -treated with THR-123 (n=7 in both i.p. and oral).
FIG. 58 Gene expression analysis for the fibrosis markers in mice with UUO. Quantitative RT-PCR analysis for fibronectin-EIII and collagen type-I in normal kidney and day 7 UUO kidney with or without indicated treatment.
Mice are anesthetized with the mixture of ketamine and xylazine. Prepare the ureter from the surrounding tissues and place two ligatures about 5 mm apart in upper two-thirds of the ureter of the left kidney to obtain reliable obstruction. At same day after surgery, mice were initiated treatment with BMP7 (300 μg i.p./Kg/every other day), THR-123 (p.o. 5 mg or 15 mg/Kg/day, i.p. 5 mg/Kg/day) or PBS (i.p.) as control. Mice are sacrificed at day 5 or 7 after operation.

Alk-6 = biological target: T1, Alk-6; experiment: Radio-ligand (125I-BMP7) receptor binding assay, Alk-6 ECD
Text: FIG. 45A-FIG. 45G Pharmacokinetics of THR-123. FIG. 45A. BMP7 structure figure with the residue weights resulting from the analysis mapped on to it. FIG. 45B, FIG. 45C. Radio-ligand receptor binding assays specific for individual type I receptors, Alk-3 (FIG. 45B) and Alk-6 (FIG. 45C). Highly purified extra-cellular domain (ECD) of Alk-3 or Alk-6 (expressed as a fusion protein with Fc domain) served as a receptor. In each assay purified receptor was immobilized on each well and peptide analog or unlabeled BMP7 was added, followed by ^125I-labeled BMP7. Radiolabeled BMP7 complex was counted in an auto-gamma counter. Results were expressed as the mean±s.e.m. […] Concentration of THR-123 in systemic circulation of Wistar rats following iv injection of THR-123 (^125I-Tyr) via the tail vein determined by total radioactivity measurement. […] Six hours after intravenous administration of ^125I labeled-THR-123 in rats at a dose of 6.25 mg/kg-body weight, tissues were harvested and analyzed by automatic gamma well counter. […] Radioactivity of orally administrated ^125I labeled-THR-123 at a dose of 5 mg/kg body weight was localized in the kidney between 1 and 6 hours after administration and peaked at around 3 hours.
First, specific affinity of the extra cellular domains (ECD) of the several type I receptors of BMPs to THR-123 was analyzed. […]

Molecule | reversal of EMT morphology (NP-1 cells) | hydroxyproline content (total collagen) of UUO kidneys (UUO animals) | expansion of the interstitial space (UUO animals) | kidney histology (H&E), day 7 UUO [1] | interstitial volume / fibrosis, day 7 UUO ([1]; 5 mg/kg/day) | interstitial volume expansion, day 5 UUO ([1]; THR-123 oral 5 mg/Kg or 15 mg/Kg) | kidney histology, day 5 UUO ([1]; THR-123 orally 5 mg/kg or 15 mg/kg) | expression of fibronectin and type I collagen, day 7 UUO ([1]; quantitative RT-PCR) | binding to ALK6 (competition with 125I-BMP7) (Alk-6; listed as THR-123) | interstitial volume / fibrosis, day 7 UUO [1] | interstitial volume / fibrosis, day 7 UUO ([1]; listed as BMP7) | binding to ALK6 (competition with 125I-BMP7) (Alk-6)
(H)-CYFDDSSNVLCKKYRS-(OH) (H-CYFDDSSNVLCKKYRS-OH; disulfide 1-11; SMILES CC(C)C[C@@H]1NC(=O)[C@H](C(C)C)NC(=O)[C@H](CC(N)=O)NC(=O)[C@H](CO)NC(=O)[C@H](CO)NC(=O)[C@H](CC(=O)O)NC(=O)[C@H](CC(=O)O)NC(=O)[C@H](Cc2ccccc2)NC(=O)[C@H](Cc2ccc(O)cc2)NC(=O)[C@@H](N)CSSC[C@@H](C(=O)N[C@@H](CCCCN)C(=O)N[C@@H](CCCCN)C(=O)N[C@@H](Cc2ccc(O)cc2)C(=O)N[C@@H](CCCNC(=N)N)C(=O)N[C@@H](CO)C(=O)O)NC1=O) [SEQ ID NO: 1] | reversal of the morphology | effectively decreased | significantly reduced | preserved tubules | inhibited fibrosis; also recorded: less kidney interstitial volume | inhibited interstitial volume expansion | less tubular atrophy, tubular dilatation and interstitial inflammation | decreased expression of matrix components such as fibronectin and type I collagen | absolutely no competition; also recorded: does not bind | – | – | –
B1 | reversal of the morphology | effectively decreased | significantly reduced | preserved tubules | – | – | – | – | – | ameliorated interstitial volume expansion | less kidney interstitial volume | binds
